We go through two molecules from patent US20240262803A1, “COMPOUNDS, COMPOSITIONS AND METHODS OF TREATING DISORDERS” (Chungdu Anticancer Bioscience Ltd, priority 2021, published 2024).

Entries after “also recorded” stand apart in the source; their conditions may differ.

This experiment deals with cervical cancer cell line Hela. In words: Soft agar colony formation assay, Hela. The following applies: 3D culture, FIG. 2. It counts as cell-based, human. The procedure: Six lung cancer cell lines (NCI-H23, NCI-H460, NCI-H596, NCI-H2170, Calu-6 and A549), two colon cancer cell lines (HCT116 and SW460), one breast cancer cell line MDA-MB-231, one gastric cancer cell line NCI-N87, one prostate cancer cell line DU145, one cervical cancer cell line Hela, and one glioblastoma cell line T98G were obtained from ATCC. The T2 HCC cell line was derived from a mouse liver cancer model initiated by a transgene of MYC (Reference). All cell lines were cultured in DMEM (Gibco, Cleveland, TN, USA) supplemented with 5% fetal bovine serum (Gibco), penicillin (100 U/mL)-streptomycin (100 μg/mL) (Gibco, Cat. No. 15140-122), 2 mM L-glutamine (Gibco, 200 mM solution, Cat. No. 25030081), and 1 mM sodium pyruvate (Gibco, 100 mM solution, Cat. No. 11360070) at 37° C. in a humidified incubator that was maintained at 5% CO2.
Measuring the ability of cells to grow in soft agar has been popularly believed as the gold standard assay for cellular transformation in vitro. In the Soft Agar Assay, cells grow from single cells to cell colonies in a semi-solid agar solution that keeps them away from the solid surface and allows growth in an anchorage-independent way.
The anchorage-independent growth of cells is one of the hallmarks of cancer cells. […] Cell culture medium was changed once every two days until colonies were ready to photograph. […]

On to `COC(=O)c1cc(Oc2ncccc2-c2ccncc2)cc(C(=O)OC)c1` [Compound 1, Dimethyl 5-([3,4′-bipyridin]-2-yloxy)isophthalate], for which the “anchorage-independent growth in soft agar” value is “Suppress the Anchorage-independent Growth; also recorded: effectively suppressed the anchorage-independent growth”.
With `COC(=O)c1cc(Oc2ncccc2-c2ccnc(N)n2)cc(C(=O)OC)c1` [Compound 21, dimethyl 5-((3-(2-aminopyrimidin-4-yl)pyridin-2-yl)oxy)isophthalate] the entry was “Suppress the Anchorage-independent Growth; also recorded: effectively suppressed the anchorage-independent growth”.
